From a melting point compilation (Tetko et al.; mined from patent text by program, amines drawn as free bases though some values may be those of a salt)

melting point [°C] | SMILES
147 to 148 | CC(C)(C)OC(=O)NCc1cccc(Nc2n[nH]c3ncnc(Nc4cccc(Cl)c4)c23)c1
134 to 138 | CCN(CC)CC(=O)OC1CC2(C)C(C(C)=O)CCC2C2CCC3CC(O)C=CC3(C)C12 (centres undefined)
45 to 50 | CCOC(=O)CCC1CCCC2CCC(=O)NC21 (centres undefined)
150 | C=CCSc1cc(C(=O)O)cc(N)c1-c1ccccc1
216 to 217 | Cc1ccc2cccc(OCc3c(Cl)ccc(S(=O)(=O)n4cccc4)c3Cl)c2n1
120 | O=C(O)CCCSC=CS(=O)(=O)CCCC(=O)O
131 to 133 | Cc1c(SCc2cccs2)ccnc1CSc1nc2ccccc2[nH]1
202 to 205 | CCCc1c(OCc2ccccc2)ccc2c1OC(CCC(=O)O)(CCC(=O)O)CC2=O
138 to 140 | COc1ccc2cc(-c3ccnc(NCCc4ccc(OC)c(OC)c4)n3)cc(N3CCNCC3)c2c1
178 to 180 | Cn1cc(-c2cccc(N3Cc4cc(C(C)(C)C)ccc4C3=O)c2CO)cc(Nc2cc(C3CC3)n[nH]2)c1=O
183 to 185 | Nc1ncc2ncn(OCC(O)CO)c2n1 (centres undefined)
171 to 173 | O=C(O)C1CSC(c2ccncc2)N1 (centres undefined)
268 to 272 | Cc1[nH]c2ccccc2c1/C=C/C(=O)c1ccncc1
65 | CC(=O)CS(=O)(=O)c1cccc2ccccc12
164 to 166 | Cc1nc(N2CCN(C)CC2)nc(N)c1-c1cc(Cl)cc(Cl)c1
65 to 69 | Cn1ccnc1SCC(=O)C12CC3CC(CC(C3)C1)C2
> 240 | O=C(Nc1cccc(-c2ccnc3c(C(=O)c4cccs4)cnn23)c1)c1ccco1
242 to 244 | COCc1cccc(CNC(=O)c2nc3scc(COCc4ccc(C(=O)O)cc4)c3c(=O)[nH]2)c1
> 300 | O=C1CN2Cc3c(ccc(Cl)c3Cl)N=C2N1
147 to 149 | CC(C)(C)c1cc(CCCCCCc2cc(C(C)(C)C)c(O)c(C(C)(C)C)c2)cc(C(C)(C)C)c1O
187 to 190 | CCOC(=O)c1c(S(=O)(=O)O)nc(-c2ccccc2)c([N+](=O)[O-])c1C(=O)OCC

melting point [°C] | SMILES
118 to 121 | CC(=O)N(CC1CC1)c1cccc(-c2ccc3nnc(C)n3n2)c1
141 to 142 | CNC(=O)C(C)Nc1nc(-c2ccc(F)c3ccccc23)cc(C(C)C)n1 (centres undefined)
173 to 175 | CC(NC(=O)C1=C(C(=O)Nc2cc(OC3CCCC3)c(Cl)cc2F)CCCC1)c1ccccc1 (centres undefined)
150 to 152 | COCOc1ccc(-n2cc(C(=O)O)c(=O)cc2-c2ccc(N(C)C)cc2)cc1
141 | COc1cccc(CCN2C(=O)c3c(F)ccc(F)c3C2(O)c2ccccc2)c1 (centres undefined)
92 to 98 | CC(O)C1C(=O)N2C(C(=O)OCc3ccc([N+](=O)[O-])cc3)C(=O)CC12 (mixture of isomers)
> 260 | O=C(O)c1ccc2oc(-c3ccc(Cl)c(Cl)c3)cc2c1
49 to 50.5 | CCCCCCCCCCCCCCCCSCC(CN)NC(=O)OC (centres undefined)
68 to 70 | CCCC=C(NC(=O)c1ccccc1)C(=O)OCC
55 to 57 | C=CC[C@H](CC(=O)OC(C)(C)C)C(=O)N[C@H](C(=O)OCc1ccccc1)C(C)(C)C
129 to 132 | O=C1NN=C(c2ccc3c(c2)CCN(C2CCC2)CC3)C2CC12 (centres undefined)
184 to 185 | CCOC(=O)c1cnn(-c2ccccc2)c1NC(=O)Nc1ccccc1
148 to 149 | CCOC(=O)CC(=O)CC(O)/C=C/c1c(-c2ccccc2)c2ccccc2c(=O)n1C (centres undefined)
95 to 96 | CCOc1nn(Cc2ccc(OCc3cccc(-c4ccccc4)n3)cc2)cc1CCC(=O)O
178 to 181 | CS(=O)(=O)Cc1ccc2oc([N+](=O)[O-])c(-c3ccccc3)c2c1
84.5 to 85.5 | CC(C)[C@H](NC(=O)Oc1ccccc1)C(=O)O
90 to 95 | C=C(C)C(=O)[C@@H]1CCCC[C@H]1C(=O)OC(c1ccccc1)c1ccccc1 (relative stereo)
88.1 to 88.7 | COc1ccc(C=CC(=O)c2cccc([N+](=O)[O-])c2)c(OC)c1
200 to 202 | Cn1c2c(c3cc(F)ccc31)C(=O)NCC2
158 | CCCCNc1cc(C(=O)O)cc(S(C)=O)c1Cl (centres undefined)
147 to 148 | CCOC(=O)c1c(CCl)nc2cc(OC)c(OC)cc2c1-c1ccc(F)cc1

More lines, now with the values behind:

SMILES | melting point [°C]
CCc1nc(=O)c(CCC(=O)O)c(C)n1Cc1ccc(-c2ccccc2-c2nnn[nH]2)cc1 | 317 to 322
CC(C)(C)c1ccc(S(=O)(=O)NCc2ccc(C(=O)O)cc2)cc1 | 290 to 291
COC(=O)C1=C(O)c2ccccc2S(=O)(=O)N1 | 173 to 175
CCc1nc(-c2ccc(Cl)cc2)c(CCC(=O)O)o1 | 160 to 161
COC(=O)COc1cccnc1 | 174
CCOC(=O)CN1C(=O)c2cccc3cccc(c23)C1=O | 160 to 162
Cc1cc(-n2ccnc2)c2cccc(OCc3c(Cl)ccc(S(=O)(=O)N4CCC[C@H]4C(=O)NCCN4CCCC4)c3Cl)c2n1 | 105
C=CCN(c1ccccc1C=C(SC)S(C)=O)c1c(Cl)cccc1Cl (centres undefined) | 104 to 107
Cc1c(C=O)c2c(c(C)c1NC=O)C(c1ccc(C(C)C)cc1)CO2 (centres undefined) | 123 to 124
O=c1cc(-c2ccc(CO)cc2)oc2ncccc12 | 218 to 219
O=C(O)c1ccc(NCCOc2ccc(Cl)cc2Cl)cc1 | 203 to 205
COc1cc2c(c(OC)c1OC)CC(N1CCC(n3c(=O)[nH]c4ccccc43)CC1)C2=O (centres undefined) | 197 to 199
COC(=O)c1cc(NC(=O)COc2ccccc2)c2cc(Cc3ccc(F)cc3)cnc2c1O | 172 to 173
Fc1ccc(Nc2ncnc3cnc(N4CCC(N5CCOCC5)CC4)nc23)cc1Cl | 222 to 224
COc1ccccc1C1(O)C(O)CC(C)(C)C2CN(C(=O)Cc3c[nH]c4ccccc34)CC21 (centres undefined) | 160 to 165
Cc1cc(-c2nc3cc(Cl)cc(CCc4ccccn4)c3o2)[nH]n1 | 205 to 220
CCOC(=O)c1cn(C2CC2)c2nc(N3CCC(NCC(C)=O)C3)c(F)cc2c1=O (centres undefined) | 203 to 204
COc1c(Cl)ccc(-c2cc(N)c(Cl)c(C(=O)N(C)OC)n2)c1F | 159 to 162
CCCCc1nnc(-c2ccc(N)cc2)o1 | 125

SMILES | melting point [°C]
CC(C)N(CCCC1CCN(CCNC(=O)N2c3ccccc3C(=O)Nc3cccnc32)CC1)C(C)C | 184
COC(=O)CCc1cc2cc(Cl)ccc2n1S(=O)(=O)c1cccc2cccnc12 | 157 to 161
CCOC(=O)/C=C/c1ccc(C#Cc2ccc3c(c2)C(C)(C)CCC3(C)C)cc1 | 116 to 118
COc1cc2ccccc2cc1NC(=O)N1CCN(c2cc(F)cc(F)c2)CC1 | 160 to 161
CC(=O)OCc1cc(=O)n2ccsc2n1 | 144 to 145
CCOC(=O)c1sc(-c2ccc(C(F)(F)F)cc2)nc1COC(C)=O | 82
N#Cc1cc(Cn2cncn2)cc(-c2ccc(F)cc2)c1 | 134 to 135
O=c1c2cc(F)ccc2nc(CSc2ncnc3[nH]cnc23)n1-c1ccccc1Cl | 233
CCc1nn2ccccc2c1C(C)=O | 108 to 112
CC(=O)OCc1cn(C)c2ccccc2c1=O | 142 to 146
CC(C)C(=O)N[C@@H](CSC(=O)C(C)C)C(=O)NCCSC(=O)c1ccccc1 | 141 to 143
CN(C(CCn1c(=O)cc(C(F)(F)F)[nH]c1=O)C(=O)NO)S(=O)(=O)c1ccc(Oc2ccncc2)cc1 (centres undefined) | 116 to 118
NC(=S)NN=C(CCCCl)c1ccc(Cl)cc1 | 125 to 126
CC1(C)CN(CCN2CC(C)(C)N(O)C(C)(C)C2=O)C(=O)C(C)(C)N1O | 193
N#Cc1cc(C(=O)CCl)cs1 | 94 to 98
COC(=O)CC1c2cc(N(C)C)ccc2N(C(C)=O)C1C (centres undefined) | 122
COc1cc(C)c(CCCCCCCCCC(=O)CCCCCC(=O)O)c(O)c1OC | 55 to 57
COc1ccc(CNc2ccc(Cl)cc2C(=O)C(F)(F)F)cc1 | 82 to 84
NC(=O)C(OCc1ccc(Cl)cc1)(C(F)(F)F)C(F)(F)F | 94 to 95

SMILES | melting point [°C]
CCCCCCCCCCN1C(=O)C=CC1=O | 48 to 49
CCCN1C(=O)C(C(=O)Nc2ccc(Cl)cc2)S(=O)(=O)c2ccccc21 (centres undefined) | 189 to 190
OC(CCCCBr)(c1ccc(F)cc1)c1ccc(F)cc1 | 55
COC(=O)C[C@H]1C(=O)OCN1C(=O)OCc1ccccc1 | 90 to 93
CC(C)(C)OC(=O)N[C@@H](CC(N)=O)C(N)=O | 190 to 192
CNc1nc(Nc2ccc(Cl)c(Cl)c2)ncc1N1C(=O)CNC1=O | 301
COC(=O)NC1=NCC(c2ccc(F)cc2)N1C (centres undefined) | 153 to 155
O=c1[nH]c2ccc(C(F)(F)F)cc2c(-c2cc(Cl)ccc2O)c1NCc1ccccc1 | 215 to 217
CNC(=O)C1CN(CCCC(c2ccc(F)cc2)c2ccc(F)cc2)CCN1CC(=O)Nc1c(C)cc(C)cc1C (centres undefined) | 90.2
C=CC(=O)Oc1ccc(C(C)(c2ccc(OC(=O)C=C)cc2)c2ccc(OC(=O)C=C)cc2)cc1 | 130
CC(C)CC(=O)O[C@H]1C[C@H](O)C=C2C=C[C@H](C)[C@H](CC[C@@H]3C[C@@H](O)CC(=O)O3)[C@H]21 | 153 to 155
COc1ccccc1NC(=O)Nc1nc(NCCC(=O)O)nc(Nc2ccccc2-c2ccccc2)n1 | 196 to 205
c1ccc(-c2nc(-c3ccc(CN4CCCCCC4)s3)n[nH]2)nc1 | 160 to 162
COc1cc(C(=O)O)ccc1CC(=O)Nc1cccc(/C=C/c2nc(C3CCC3)cs2)c1 | 242 to 243
NC(=O)CCCCn1ccc([N+](=O)[O-])n1 | 129 to 131
COc1ccccc1Cc1ccc(-c2cnn3c(O)ncnc23)cc1 | 246 to 256
Cc1ccnc(C(=O)c2ccc(F)cc2)c1 | 98 to 100
CNc1nc(CSC)c(-c2ccncc2)s1 | 135 to 138
O=c1[nH]c2cc(Cl)ccc2c(O)c1-c1cccc(Cc2ccccc2)c1 | 304 to 306
